In patent publication US4622389A, “Novel substrate for determining the activity of blood coagulation factor Xa (Stuart-Prower factor)” (Nitto Poseki Co., Ltd., priority 1984, dated 1986):
Each block holds one compound with its values, some of them ahead of it. Residues, ends and D or L forms follow the SMILES beside them. *: point of attachment. pNA = O=[N+]([O-])c1ccc(N*)cc1; Bz = O=C(c1ccccc1)*

Columns and labels:
[1] = Solubility in water; assay type: physicochemical
[2] = molecular target: T1, kallikrein (KL) (Sus scrofa, UniProt P00752); test: Substrate specificity test: reaction of substrates with kallikrein; assay type: biochemical, Swine; conditions: So = 0.4 mM/l, 5 min reaction at 37° C.
T1 construct: purchased Sigma Chemical Co., U.S.A
Protocol: (§1) The specificities of newly synthesized substrates were tested by reacting them with various enzymes as follows.
(§2) (1) Substrate solution: 2 mM/liter of H2 O
(§3) (2) Buffer solutions: The concentrations of each of tris(hydroxymethyl)aminomethane [hereinafter referred to as "Tris"], NaCl and CaCl2, as well as pH were specified as follows for the respective enzymes. […]
(§4) (4) Reaction Stopper (PNA): 10%-acetic acid
(§5) (5) Color forming agent (CHA): Pentacyanoamineferroate
(§6) (6) Method of determination:
(§7) 0.3 Milliter buffer solution and 0.1 ml of enzyme reagent were collected in a hard glass test tube of which surface being treated with silicone, or a plastic test tube and preheated in a thermostat at 37° C. for 5 minutes. Precisely 5 minutes after the reaction was started, 2.0 ml of reaction stopper solution or reactionterminating color forming reagent was added to terminate the enzyme reaction. The reaction mixture was allowed to stand at 37° C. for 10 minutes and then the adsorbance at 405 nm or 700 nm was measured.

[3] = molecular target: T2, factor Xa (FXa) (Homo sapiens, UniProt P00742); test: Substrate specificity test: reaction of substrates with FXa, absorbance of liberated chromogen; assay type: biochemical; conditions: for absorbance (O.D.), FXa: So = 0.4 mM/l, 5 min reaction at 37° C.
T2 construct: purchased Bohringer Mannheim, GmbH, West Germany
Protocol: as §1, §2, §3, §4, §5, §6, §7

[4] = molecular target: T3, plasmin (PL) (Homo sapiens, UniProt P00747); test: Substrate specificity test: reaction of substrates with plasmin; assay type: biochemical; conditions: for absorbance (O.D.), PL: So = 0.4 mM/l, 5 min reaction at 37° C.
T3 construct: Plasmin Human; purchased The Green Cross Corporation, Japan
Protocol: as §1, §2, §3, §4, §5, §6, §7

[5] = molecular target: T4, urokinase (UK) (Homo sapiens, UniProt P00749); test: Substrate specificity test: reaction of substrates with urokinase; assay type: biochemical; conditions: for absorbance (O.D.), UK: So = 0.4 mM/l, 5 min reaction at 37° C.
T4 construct: purchased Mochida Pharmaceutical Co., Ltd., Japan
Protocol: as §1, §2, §3, §4, §5, §6, §7

[6] = molecular target: T5, thrombin (TH) (Bos taurus, UniProt P00735); test: Substrate specificity test: reaction of substrates with thrombin; assay type: biochemical, Bovine; conditions: for absorbance (O.D.), TH: So = 0.4 mM/l, 5 min reaction at 37° C.
T5 construct: proteolyze factor II (prothrombin) at two points of peptide chain to turn it into factor IIa (thrombin); purchased Mochida Pharmaceutical Co., Ltd., Japan
Protocol: as §1, §2, §3, §4, §5, §6, §7

[7] = 700 nm (CHA substrates, pentacyanoamineferroate)
[8] = PS-2000N given as 100, initial substrate concentration So = 0.4 mmol

T2 sequence (P00742 235-488 limits assumed): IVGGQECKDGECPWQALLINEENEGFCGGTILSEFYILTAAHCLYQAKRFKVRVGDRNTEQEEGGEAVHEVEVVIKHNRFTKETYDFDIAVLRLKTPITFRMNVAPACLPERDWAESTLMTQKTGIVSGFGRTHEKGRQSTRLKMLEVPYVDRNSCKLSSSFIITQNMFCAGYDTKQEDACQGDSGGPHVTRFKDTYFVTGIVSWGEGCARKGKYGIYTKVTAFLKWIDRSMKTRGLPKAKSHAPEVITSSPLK
T2 sequence (P00742 41-179 partner limits assumed): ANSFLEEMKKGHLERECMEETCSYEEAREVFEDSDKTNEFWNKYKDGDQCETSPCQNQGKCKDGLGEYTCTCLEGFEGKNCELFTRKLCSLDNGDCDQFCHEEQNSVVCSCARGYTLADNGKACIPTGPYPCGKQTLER
T3 sequence (P00747 581-810 limits assumed): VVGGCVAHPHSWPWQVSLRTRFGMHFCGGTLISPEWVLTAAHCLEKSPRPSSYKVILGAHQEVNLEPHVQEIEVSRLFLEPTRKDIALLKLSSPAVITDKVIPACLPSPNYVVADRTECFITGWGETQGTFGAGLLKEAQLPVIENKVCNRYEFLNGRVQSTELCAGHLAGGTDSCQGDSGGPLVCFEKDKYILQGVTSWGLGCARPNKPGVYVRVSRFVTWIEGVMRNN
T3 sequence (P00747 97-580 partner limits assumed): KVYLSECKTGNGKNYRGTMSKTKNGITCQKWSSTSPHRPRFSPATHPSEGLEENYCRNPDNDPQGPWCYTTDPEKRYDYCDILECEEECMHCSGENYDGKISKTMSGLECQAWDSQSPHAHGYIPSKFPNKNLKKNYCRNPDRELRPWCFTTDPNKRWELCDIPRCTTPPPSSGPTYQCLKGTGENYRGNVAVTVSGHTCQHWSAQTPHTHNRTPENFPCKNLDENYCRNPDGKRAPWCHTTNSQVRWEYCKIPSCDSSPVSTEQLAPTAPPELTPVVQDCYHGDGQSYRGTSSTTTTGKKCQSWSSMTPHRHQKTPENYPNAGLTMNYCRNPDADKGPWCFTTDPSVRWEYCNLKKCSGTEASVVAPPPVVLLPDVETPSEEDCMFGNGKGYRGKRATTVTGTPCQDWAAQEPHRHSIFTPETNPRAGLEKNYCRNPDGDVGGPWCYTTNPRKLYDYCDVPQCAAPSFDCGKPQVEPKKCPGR
T1 sequence (P00752 8-246): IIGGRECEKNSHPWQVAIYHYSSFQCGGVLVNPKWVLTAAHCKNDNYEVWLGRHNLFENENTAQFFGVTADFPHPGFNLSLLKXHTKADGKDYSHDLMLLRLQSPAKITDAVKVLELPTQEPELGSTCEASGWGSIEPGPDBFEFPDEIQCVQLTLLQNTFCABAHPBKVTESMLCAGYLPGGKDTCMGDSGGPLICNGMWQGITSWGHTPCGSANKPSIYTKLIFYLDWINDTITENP

- absorbance (O.D.), KL [2, 7]: 0.0 O.D.
- absorbance (O.D.), FXa [3, 7]: 0.314 O.D.
- absorbance (O.D.), PL [4, 7]: 0.005 O.D.
- absorbance (O.D.), UK [5, 7]: 0.004 O.D.
- absorbance (O.D.), TH [6, 7]: 0.006 O.D.
Compound: N=C(N)NCCC[C@H](NC(=O)CNC(=O)[C@@H](CCCCN)NC(=O)OCc1ccccc1)C(=O)Nc1ccc(O)c(C(=O)O)c1 [PS-2001, ZD-LysGlyArgCHA]

- absorbance (O.D.), KL [2, 7]: 0.0 O.D.
- absorbance (O.D.), FXa [3, 7]: 0.292 O.D.
- absorbance (O.D.), PL [4, 7]: 0.0 O.D.
- absorbance (O.D.), UK [5, 7]: 0.0 O.D.
- absorbance (O.D.), TH [6, 7]: 0.006 O.D.
Compound: CN(CC(=O)N[C@@H](CCCNC(=N)N)C(=O)Nc1ccc(O)c(C(=O)O)c1)C(=O)[C@@H](CCCCN)NC(=O)OCc1ccccc1 [PS-2004, ZD-LysSarArgCHA]

- absorbance (O.D.), KL [2, 7]: 0.0 O.D.
- absorbance (O.D.), FXa [3, 7]: 0.426 O.D.
- absorbance (O.D.), PL [4, 7]: 0.004 O.D.
- absorbance (O.D.), UK [5, 7]: 0.003 O.D.
- absorbance (O.D.), TH [6, 7]: 0.009 O.D.
Compound: CC(=O)NCCCC[C@@H](NC(=O)OCc1ccccc1)C(=O)NCC(=O)N[C@@H](CCCNC(=N)N)C(=O)Nc1ccc(O)c(C(=O)O)c1 [PS-2002, ZD-Lys(Ac)GlyArgCHA]

The remaining lines, values behind:

Compound: CC[C@H](C)[C@H](NC(=O)c1ccccc1)C(=O)N[C@@H](CCC(=O)O)C(=O)NCC(=O)N[C@@H](CCCN=C(N)N)C(=O)Nc1ccc([N+](=O)[O-])cc1 [S-2222, Bz-Ile-Glu-Gly-Arg-PNA, reference compound] (Bz-IEGR-pNA)
- water solubility [1]: about 6 mmol/1

Compound: CC[C@H](C)[C@H](NC(=O)c1ccccc1)C(=O)N[C@@H](CCC(=O)O)C(=O)NCC(=O)N[C@@H](CCCNC(=N)N)C(=O)Nc1ccc([N+](=O)[O-])cc1 [S-2222, Bz-Ile-Glu-Gly-Arg-PNA, reference compound] (Bz-IEGR-pNA)
- absorbance (O.D.), KL ([2]; 405 nm (PNA substrates)): 0.013 O.D.
- absorbance (O.D.), FXa ([3]; 405 nm (PNA substrates)): 0.669 O.D.
- Relative reactivity to enzymes, Fxa [3, 8]: 57%
- absorbance (O.D.), PL ([4]; 405 nm (PNA substrates)): 0.011 O.D.
- Relative reactivity to enzymes, PL [4, 8]: 16%
- absorbance (O.D.), UK ([5]; 405 nm (PNA substrates)): 0.035 O.D.
- Relative reactivity to enzymes, UK [5, 8]: 40%
- absorbance (O.D.), TH ([6]; 405 nm (PNA substrates)): 0.018 O.D.
- Relative reactivity to enzymes, TH [6, 8]: 31%
